Residues, ends and D or L forms follow the SMILES beside them. *: point of attachment. Butanoyl(4-pyren-1-yl) = O=C(CCCc1ccc2ccc3cccc4ccc1c2c34)*
Assays:
[1] = Solubility and aggregation of pyrene-labeled peptides seen by absorption and fluorescence; conditions: for solubility in ethanol and methanol: judged from narrow absorption bands
Procedure: The solutions of HSA (concentration = 3 10^−5 M) were prepared by dissolving the protein in 0.01 M of phosphate buffer saline (PBS, [NaCl] = 150 mM), pH = 7.2. […] The prepared samples were used within 24 h. […] The concentration of HSA was verified spectrophotometrically using the molar absorption coefficient 35500 M^−1cm^−1 at 280 nm for HSA [61]. In order to ensure complete protein hydration, the solutions were stored at room temperature for at least 1 h before measurements. The samples for fluorescence measurements were saturated with argon or deaerated with a vacuum pump.
The absorbances of Py-LYQLENY and Py-VEALYL were determined in 10 mM standard PBS solution, ethanol, methanol, and 10 mM TX-100. The spectra were normalized to a maximum of S0→S2 […]
band (Figure 4, panel I).
(1 picture or pasted object on this page, not shown here)
Fig. S7. Panel I: Normalized absorption spectra of Py-LYQLENY (a) and Py-VEALYL (b) in different solvents. Panel II: Normalized emission spectra of Py-LYQLENY (a) and Py-VEALYL (b) in different […]
We also investigated the solubility of Py-LYQLENY conjugate (2) in dioxane.
This allowed the molar coefficient absorbance to be determined, using the gravimetric […]
The addition of a small amount of concentrated
Py-LYQLENY stock solution in dioxane to the buffer solution enabled the molar absorbance coefficient […]
In order to investigate the possible aggregation of the fluorescence labeled insulin hot spots in the buffer solution, spectrophotometric titration was performed for Py -LYQLENY (2) in a range of concentration from 2.9 to 56.4 µM. Titration was carried out until there were no significant changes in fluorescence intensity.
The fluorescence spectra were recorded for each concentration (Figure 5a). After normalization of the […]
Fig. S8. Fluorescence spectra of Py-LYQLENY in PBS solutions recorded for the given probe

HSA [2] = molecular target: T1, HSA (Homo sapiens, UniProt P02768); assay: Steady-state fluorescence titration with HSA (binding constant Kb); conditions: Py-LYQLENY 3 µM in buffer, fluorescence intensity as function of HSA concentration (plateau at 45 µM), Equation (3)
T1 construct: purchased Sigma-Aldrich
Procedure: The prepared samples were used within 24 h.
Steady-state absorption and fluorescence spectra were recorded at a resolution of 0.5 nm using an Aminco Bowman AB2 Series spectrofluorometer (Thermo Fisher Scientific Inc., Waltham, MA, USA). Unless otherwise indicated, in emission measurements, the excitation wavelength was 337 nm, and excitation and emission slits were set to 2.0 and 0.5 nm, respectively.
For Py-LYQLENY conjugate (2), the binding constants Kb were calculated according to Equation (3) proposed by Kuzmin et al.:θ = Kb·[HSA] / (1+ Kb·[HSA])(3) where [HSA] is the concentration of the albumin [61], θ = (I − I0)/(I∞ − I0) is the fraction of the pyrene probe bound with HSA, I0 is fluorescence intensity without HSA, I∞ is fluorescence intensity with [HSA] = 45 µM (reaching a plateau, Figure 6b) and I is the fluorescence intensity for subsequent […].
The calculated value also confirmed existence of interactions between 2 and HSA with pyrene fragment presented on less polar environment inside protein. […] The binding constants 1.5 ± 0.3 × 10^6 dm^3 mol^−1 to 6.5 ± 0.4 × 10^7 dm^3 mol^−1 were calculated for complexes of HSA with Py-hydrophobic peptide.

HSA [3] = molecular target: T1, HSA; assay: Time-resolved fluorescence decay of the pyrene label in the presence of HSA; assay type: binding; conditions: [HSA] 30 μM, bi-exponential kinetics, average lifetime by Equation (2), λexc 337 nm, λem 400 nm
Procedure: The solutions of HSA (concentration = 3 10^−5 M) were prepared by dissolving the protein in 0.01 M of phosphate buffer saline (PBS, [NaCl] = 150 mM), pH = 7.2. […] The prepared samples were used within 24 h. […] In order to ensure complete protein hydration, the solutions were stored at room temperature for at least 1 h before measurements. The samples for fluorescence measurements were saturated with argon or deaerated with a vacuum pump.
Time-resolved measurements of HSA fluorescence were performed using a flash photolysis system based on a GL-3300 nitrogen laser (Photon Technology International, Birmingham, NJ, USA) providing single light pulses with a wavelength of 337.1 nm, duration ~800 ps, and average energy 100 µJ. The detection system consisted of a Baush&Lomb monochromator (Rochester, NY, USA), Hamamatsu 1P28 photomultiplier, and a PS325 power supply system (Stanford Research, Sunnyvale, CA, USA). […] All experiments were carried out at room temperature (25 ± 1 °C) using quartz cells with an optical length of 1 cm.

HSA [4] = molecular target: T1, HSA; assay: Quenching of pyrene fluorescence by acrylamide (Stern-Volmer) in buffer and HSA solution; assay type: binding; conditions: [HSA] 30 µM, Stern-Volmer plots
Procedure: Additionally, we examined the quenching of Py-LYQLENY and Py-VEALYL by acrylamide (ACR) in the buffer solution and HSA solution (Figure 5 Stern-Volmer plots).
Figure 5 Stern–Volmer plots for quenching of Py-LYQLENY and Py-VEALYL by ACR in the buffer and HSA solution. I0 is fluorescence intensity without quencher, I—fluorescence intensity at various concentrations of ACR, [HSA] = 30 µM.

[5] = Time-resolved fluorescence decay of the pyrene label in buffer or TX-100 (no protein); assay type: physicochemical; conditions: PBS, mono-exponential kinetics, λexc 337 nm, λem 400 nm; short lifetime taken as sign of aggregation

T1 sequence (P02768 25-609): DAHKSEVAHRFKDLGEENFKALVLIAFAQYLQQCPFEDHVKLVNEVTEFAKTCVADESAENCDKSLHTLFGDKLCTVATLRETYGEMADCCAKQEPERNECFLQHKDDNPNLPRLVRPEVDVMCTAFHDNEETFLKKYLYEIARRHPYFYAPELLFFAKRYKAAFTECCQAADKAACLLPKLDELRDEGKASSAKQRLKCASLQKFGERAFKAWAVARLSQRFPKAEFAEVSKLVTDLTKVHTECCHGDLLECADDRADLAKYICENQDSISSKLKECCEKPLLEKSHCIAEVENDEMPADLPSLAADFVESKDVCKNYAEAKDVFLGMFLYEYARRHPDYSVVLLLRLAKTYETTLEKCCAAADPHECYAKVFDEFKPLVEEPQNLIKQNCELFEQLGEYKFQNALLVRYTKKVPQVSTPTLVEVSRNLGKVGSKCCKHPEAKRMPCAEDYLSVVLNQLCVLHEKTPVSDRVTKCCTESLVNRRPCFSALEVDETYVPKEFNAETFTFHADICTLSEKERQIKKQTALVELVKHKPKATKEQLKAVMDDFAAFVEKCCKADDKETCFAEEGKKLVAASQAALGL

SMILES | solubility in aqua media in the presence of HSA [1] | solubility in dioxane [1] | solubility in the buffer solution compared with dioxane ([1]; PBS) | solubility in ethanol and methanol [1] | binding constant Kb (HSA [2]) | aggregation in buffer solution ([1]; 0.01 M PBS, 150 mM NaCl, pH 7.2) | τHSA, lifetime of fluorescence decay in the presence of HSA (HSA [3]) | quenching by acrylamide in the presence of HSA versus buffer (slope of I0/I vs. ACR concentration) (HSA [4]) | τPBS, lifetime of fluorescence decay in PBS [5]
CC(C)C[C@H](NC(=O)CCCc1ccc2ccc3cccc4ccc1c2c34)C(=O)N[C@@H](Cc1ccc(O)cc1)C(=O)N[C@@H](CCC(N)=O)C(=O)N[C@@H](CC(C)C)C(=O)N[C@@H](CCC(=O)O)C(=O)N[C@@H](CC(N)=O)C(=O)N[C@@H](Cc1ccc(O)cc1)C(=O)O [Py-LYQLENY, Py-LYQLENY-OH] ({Butanoyl(4-pyren-1-yl)}-LYQLENY-OH) | increased significantly | dissolved relatively well | lower | good | 2 × 10^5 dm^3 mol^−1 | – | – | – | –
CC(C)C[C@H](NC(=O)[C@H](Cc1ccc(O)cc1)NC(=O)[C@H](CC(C)C)NC(=O)[C@H](C)NC(=O)[C@H](CCC(=O)O)NC(=O)[C@@H](NC(=O)CCCc1ccc2ccc3cccc4ccc1c2c34)C(C)C)C(=O)O [Py-VEALYL, Py-VEALYL-OH] ({Butanoyl(4-pyren-1-yl)}-VEALYL-OH) | increased significantly | – | – | good | – | partial aggregation | 153.9 ns | protected against interaction with the quencher | 43.9 ns
